Measured values from patent US9234902B2, “Method for monitoring anticoagulant therapy” (priority 2011, dated 2016).

Experiments:
FII and FX = test: Sequential Fiix-INR (Fiix-PT) measurements over 49 days in a single patient starting on warfarin; assay type: in vivo, human; settings: FIG. 6
Text: The test results may be obtained as clotting time, clotting time ratio or any other endpoint measuring thrombin generation or fibrin formation. […] Since this is a variant of the prothrombin time we call it “Fiix-prothrombin time” or Fiix-PT.
In our new method, which we call Fiix-method, a test plasma sample (patient plasma) is mixed with normal plasma that has been immunodepleted of both FII and FX (Fiix-deficient plasma). Using such mixture, by adding thromboplastin and calcium, a prothrombin time variant can be measured that is only sensitive to FII and FX, ie Fiix-PT. In the Fiix-PT the proportions of test plasma to Fiix-deficient plasma can be in the range from 1:1 to 1:20 parts, preferably in the range from 1:2 to 1:10 (see below).
Based on the experiments shown in FIG. 4 we decided to measure the Fiix-PT by mixing […] of a 1:7 dilution of test plasma with 25 uL of Fiix-deficient plasma (i.e. final proportion 1 part test plasma to 2.2 parts Fiix-deficient plasma). We then measured “Fiix-PT” in samples from 38 patients on stable warfarin therapy and calculated the international normalized ratio (“Fiix-INR”). […] Corresponding results were found when Fiix-INR was correlated with Quick PT based INR(PT-INR, data not shown).
In FIG. 6 we show sequential measurements of Fiix-INR, PP-INR, FII, FVII and FX over 49 days in a single patient starting on warfarin. […]

FII, FVII and FX = test: Sequential PT-INR (PP-INR) measurements over 49 days in a single patient starting on warfarin; assay type: in vivo, human; settings: FIG. 6, grey zone
Description: Both the Quick prothrombin time (PT) and the Owren's prothrombin time (prothrombin proconverting time, P&P test) were measured on patient samples. The STA-R coagulation analyzer was used (Diagnostika Stago, Asnieres, France). The PT was done using the STA-Néoplastine® CI plus as coagulation reagent, with and ISI value of 1.3 and the P&P was done using the STA-SPA 50 reagent with ISI of 1.01 (both from Diagnostika Stago). The P&P reagent is similar to the PT reagent but also consists of added absorbed bovine plasma as a source of coagulation factor V and fibrinogen and, thus, is only sensitive to the activity of FII, FVII and FX. The P&P percentages were calculated from a standard curve based on serially diluted pooled plasma in Owren's buffer. The INR is calculate as described above.
In FIG. 6 we show sequential measurements of Fiix-INR, PP-INR, FII, FVII and FX over 49 days in a single patient starting on warfarin. The amount of coagulation factors (percentage) is shown on the left Y-axis and the INR value on the right Y-axis. The change in INR in relation to changes in concentrations of the VKD factors can be derived from the graph. […]

CC(=O)CC(c1ccccc1)c1c(O)c2ccccc2oc1=O (centres unmarked) [warfarin]
day on which the patient reaches an acceptable INR value (acceptable anticoagulation) by Fiix-INR (FII and FX): 5 days
day on which the patient has reached an acceptable anticoagulated range by PT-INR (FII, FVII and FX): 3 days
